Source: publication PMC12670400, “LEKTI-Grafted Sunflower Trypsin Inhibitor: A Potential Therapeutic for Skin Diseases” (Journal of Medicinal Chemistry, 2025)
Like-named read-outs stand apart in the source and are kept apart here. Bridge positions count the residues as written; N and C are the ends. Peptide text beside a SMILES is read from it.

What was measured:
[1] = amide bond, 42-membered ring, then NH4HCO3 air oxidation, 2 steps
[2] = target: T1, KLK5 (Homo sapiens, UniProt Q9Y337); assay: Protease activity assay: inhibition of recombinant KLK5 (Boc-VPR-AMC substrate); assay type: biochemical
T1 construct: purchased R&D Systems 1108-SE
T1 sequence (Q9Y337 23-293): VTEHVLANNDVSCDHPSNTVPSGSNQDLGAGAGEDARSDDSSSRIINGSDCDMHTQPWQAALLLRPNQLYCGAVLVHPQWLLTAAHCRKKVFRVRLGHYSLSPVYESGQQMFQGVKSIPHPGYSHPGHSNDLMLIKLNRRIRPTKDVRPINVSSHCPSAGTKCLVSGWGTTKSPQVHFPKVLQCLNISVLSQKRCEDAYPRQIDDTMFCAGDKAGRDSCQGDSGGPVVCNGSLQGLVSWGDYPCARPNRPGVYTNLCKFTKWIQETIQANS
Method: Inhibitory activity against KLK5 was evaluated using the fluorogenic substrate Boc-VPR-AMC for KLK5 (Table ). […] The P1–P1′ reactive site (Arg5 to Ser6) is critical for inhibitor binding, with the P1′ position contributing up to 50% of the total association energy. , The conserved serine at P1′ in Bowman-Birk inhibitors (BBIs) is essential for function. […] Preservation of serine in the P1′ position restored inhibitory activity seen in 5 and 6. Preserving the native serine restored efficacy to the nanomolar range (5: 31 ± 7 nM; 6: 114 ± 11 nM).
Methods for biological experiment
SFTI analogues were created by individual amino acid substitutions in PYMOL (Python Molecular Graphics System) using the existing solution NMR structure of native SFTI - 1 (1JBL) found in the RCSB (Research Collaboratory for Structural Bioinformatics) database. Residues of 2 were mutated as follows: L5R, I10H, and F12W with conserved SFTI-1 backbone structure. Other SFTI based analogues were further modified using PYMOL. Currently, there are no SFTI-1 and Kallikrein 5 co-crystal structures found in the RCSB database. Superimposing the existing crystal structure of SFTI-1 and Trypsin complex (4XOJ) with Kallikrein 5 crystal structure (2PSX) was performed with PYMOL. Ab-initio docking between KLK5 and 2 were performed with HADDOCK 2.4 1, 2, with binding active site parameter set to Arg2, Cys3, Thr4, Arg5, Ser6 for 2 and Ser195, His57, and Asp102 for KLK5 catalytic triad. PRODIGY 3-5, set at 25 °C, was used to predict dissociation constant and binding interactions of docked clusters. Structural visualization and alignment were performed with PYMOL 6, and comparative sequence analysis was performed with MEGA11 7.
A fluorescence spectrometer using SpectraMax® i3x plate reader (Molecular Devices, United States) was used to measure the relative fluorescence unit (RFU) on a 96-well black microplate (Grenier Bio-one, cat no. 655074). The wavelengths were set to 360/460 nm (excitation/emission) for the substrate Boc-VPR-AMC (Bachem AG, cat no. 4003460) and 320/405nm for the substrate Mca-RPKPVE-Nval-WRK(Dnp)-NH2 Fluorogenic MMP Substrate (R&D Systems Biotechne, cat no.ES002). The Boc-VPR-AMC stock solution was prepared by dissolving the solid form in dimethyl sulfoxide to 100 mM. Mca-RPKPVE-Nval-WRK(Dnp)-NH2 fluorogenic MMP Substrate is supplied as stock solution at 10.0 mg/mL in dimethyl sulfoxide. Boc-VPR-AMC was used as a substrate for KLK5, 8 and 14. Mca-RPKPVE-Nval-WRK(Dnp)-NH2 was used as a substrate for KLK7. The ligand-only solution serves as a negative control (minimum RFU, 100% inhibition), and enzyme-only was served as positive (maximum RFU, 0% inhibition). The activities of proteases were measured and readout against the standard curve made in serial dilutions of tested recombinant KLKs, ranging from 0nM to 60nM. Each assay was done in triplicates and repeated at least for three times […]
Assessment of analogue mediated inhibition of KLK5, KLK7, KLK8, and KLK14 […]
Recombinant KLK5 (R&D Systems, cat no. 1108-SE) was diluted to a final concentration of 10 nM in 1X PBS (pH 8.0). KLK5 was pre -incubated on ice for 1 hour with serial dilutions of SFTI-derived analogues to assess inhibitory activity. After incubation, 20 µL of each mixture was transferred to we lls of a 96-well microplate in triplicates. The enzymatic reaction was initiated by adding 100 µL of Boc -VPR-AMC substrate (final concentration 100 µM) to each well. Fluorescence (RFU) was measured using a SpectraMax® i3x plate reader with chamber temperature maintained at 37°C. Readings were started at 0 minutes (baseline) and another […]
Recombinant KLK7 (R&D Systems , cat no. 2624-SE) and KLK14 (R&D Systems, cat no. 2664-SE) were activated by adding 1 mM CaCl ₂ 0.05% v/v Brij-35 (Sigma, cat no. […]
incubated at 37°C for 1 hour. Reactions were stopped by adding EDTA to a final concentration of 50 mM (Sigma, cat no. EDS-100G) KLK8 (catalytic domain only; R&D Systems, cat no. 2025-SE-010) was activated separately with 11 nM lysyl […]

[3] = target: Kallikrein-related peptidase 5 (KLK5) (UniProt Q9Y337 23-293); assay: enzyme inhibition assay (fluorogenic substrate); inhibition of KLK5 activity by the peptide, fluorogenic substrate Boc-VPR-AMC, n = 3; conditions in the Supporting Information; conditions: both partners purified
[4] = target: T2, KLK14 (UniProt Q9P0G3); assay: enzyme inhibition assay (fluorogenic substrate); selectivity: inhibition of KLK7, KLK8 or KLK14 activity by the peptide, n = 3; substrates and conditions in the Supporting Information
T2 sequence (Q9P0G3 41-267, species assumed, looked up): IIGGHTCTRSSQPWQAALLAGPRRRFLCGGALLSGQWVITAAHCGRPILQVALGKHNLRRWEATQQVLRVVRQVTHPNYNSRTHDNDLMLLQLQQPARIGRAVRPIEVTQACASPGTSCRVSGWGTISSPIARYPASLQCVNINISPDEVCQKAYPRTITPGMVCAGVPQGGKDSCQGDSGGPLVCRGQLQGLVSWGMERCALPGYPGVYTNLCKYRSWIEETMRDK

[5] = target: KLK7 (Homo sapiens, UniProt P49862); assay: as above
[6] = target: T3, KLK8 (UniProt O60259 33-260); assay: as above; conditions: both partners purified
T3 construct: Kallikrein 8 (KLK8); construct and source are in the Supporting Information
T3 sequence (looked up): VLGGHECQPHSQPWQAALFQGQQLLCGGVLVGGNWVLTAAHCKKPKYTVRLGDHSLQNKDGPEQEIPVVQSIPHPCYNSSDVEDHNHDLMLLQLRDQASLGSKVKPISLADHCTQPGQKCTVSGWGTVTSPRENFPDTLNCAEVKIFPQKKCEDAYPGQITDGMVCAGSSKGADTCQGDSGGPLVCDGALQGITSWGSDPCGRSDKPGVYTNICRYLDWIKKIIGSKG

[7] = NaNO2, MPAA (NCL), TCEP, 6 M guanidinium chloride buffer, 1.0 mM, 25.0 °C
[8] = MESNa/TCEP (N-to-S acyl shift, NCL), 0.1 M sodium phosphate pH 5.8, 50.0 °C

Work on GSCTRSSPPECWPN yielded a ring closure, yield after HPLC [1, 7] of 9%.

GFCHRSYPPECWPN gave a ring closure, yield after HPLC [1, 7] of 6%.

For `N=C(N)NCCC[C@@H]1NC(=O)[C@H](Cc2c[nH]cn2)NC(=O)[C@@H]2CSSC[C@H](NC(=O)[C@H](CCC(=O)O)NC(=O)[C@@H]3CCCN3C(=O)[C@@H]3CCCN3C(=O)[C@H](Cc3ccc(O)cc3)NC(=O)[C@H](CO)NC1=O)C(=O)N[C@@H](Cc1c[nH]c3ccccc13)C(=O)N1CCC[C@H]1C(=O)N[C@@H](CC(N)=O)C(=O)NCC(=O)N[C@@H](Cc1ccccc1)C(=O)N2` [compound 8], the “increase in KLK5 inhibitory potency (IC50) compared to 2” value ([2]; ratio of IC50 values) was 7 fold and the “increase in KLK5 inhibitory potency (IC50) relative to 1” value ([2]; ratio of IC50 values) was 28 fold.

Work on GFCTRSNPPECWPN yielded a ring closure, yield after HPLC [1, 7] of 8%.

In the case of `CC[C@H](C)[C@@H]1NC(=O)[C@H](CO)NC(=O)[C@H](CCCNC(=N)N)NC(=O)[C@H]([C@@H](C)O)NC(=O)[C@@H]2CSSC[C@H](NC(=O)[C@H](Cc3c[nH]cn3)NC(=O)[C@@H]3CCCN3C(=O)[C@@H]3CCCN3C1=O)C(=O)N[C@@H](Cc1c[nH]c3ccccc13)C(=O)N1CCC[C@H]1C(=O)N[C@@H](CC(=O)O)C(=O)NCC(=O)N[C@@H](CCCNC(=N)N)C(=O)N2` [compound 2] (cyclo(CTRSIPPHCWPDGR); disulfide 1-9), the IC50 ([2]; n = 3, 10 nM KLK5, Boc-VPR-AMC 100 µM, PBS pH 8.0, read-out: IC50 (n = 3)/nM for KLKs: KLK5) is reported as 54 ± 3 nM.

With GYCTRSSPPECWPN the ring closure, yield after HPLC [1, 7] was 12%.

Molecule GFCTRSNPPHCWPN has a ring closure, yield after HPLC [1, 8] of 15%.

Work on GRCTRSIPPHCWPD yielded a ring closure, yield after HPLC [1, 8] of 18%.

GFCHREYPPHCWPN showed a ring closure, yield after HPLC [1, 8] of 18%.

Molecule GFCHRSYPPHCWPN has a ring closure, yield after HPLC [1, 8] of 15%.

In the case of GFCTRENPPHCWPN, the ring closure, yield after HPLC [1, 8] is reported as 14%.

B1: SFTI analogue 6 (peptide)
peptide: cyclo(GFCHRSYPPHCWPN)
modifications: disulfide 3-11 (inferred)
notes: scaffold of analogue 2 grafted with residues of a LEKTI or LEKTI-like domain, serine kept at P1'; source: synthetic peptide (Fmoc solid-phase synthesis, cyclised via N to S acyl shift, oxidised, RP-HPLC purified)
Work on B1 yielded an IC50 [3] of 114 ± 11 nM.

B2: SFTI analogue 5 (peptide)
peptide: cyclo(GFCTRSNPPHCWPN)
modifications: disulfide 3-11 (inferred)
notes: scaffold of analogue 2 grafted with residues of a LEKTI domain, serine kept at P1'; source: synthetic peptide (Fmoc solid-phase synthesis, cyclised via N to S acyl shift, oxidised, RP-HPLC purified)
B2 gave an IC50 [3] of 31 ± 7 nM.

With cyclo(GRCTRSIPPHCWPD) (disulfide 3-11 (inferred)) [SFTI-1 triple mutant 2, cyclo-[…]] the IC50 [4] was 24 nM and the IC50 [5] was 534 nM.

B3: SFTI-1 triple mutant 2, cyclo-[GRCTRSIPPHCWPD] (peptide)
peptide: cyclo(GRCTRSIPPHCWPD)
modifications: disulfide 3-11 (inferred)
notes: numbers count on: the mature 14-residue cyclic peptide; source: synthetic peptide (Fmoc solid-phase synthesis, cyclised via N to S acyl shift, oxidised, RP-HPLC purified)
B3 showed an IC50 [6] of 373 ± 31 nM.

B4: SFTI analogue 4 (peptide)
peptide: cyclo(GFCHREYPPHCWPN)
modifications: disulfide 3-11 (inferred)
notes: scaffold of analogue 2 grafted with residues of a LEKTI or LEKTI-like domain; source: synthetic peptide (Fmoc solid-phase synthesis, cyclised via N to S acyl shift, oxidised, RP-HPLC purified)
With B4 the IC50 [3] was 1490 ± 50 nM.

B5: SFTI analogue 9 (peptide)
peptide: cyclo(GSCTRSSPPECWPN)
modifications: disulfide 3-11 (inferred)
notes: SFTI scaffold grafted with residues of a further LEKTI domain, glutamic acid at position 10; source: synthetic peptide (hydrazide peptide, cyclised via native chemical ligation, oxidised, RP-HPLC purified)
With B5 the IC50 [4] was over 1000 nM and the IC50 [6] was over 1000 nM.

B6: SFTI analogue 10 (peptide)
peptide: cyclo(GYCTRSSPPECWPN)
modifications: disulfide 3-11 (inferred)
notes: as for B5
B6 gave an IC50 [4] of over 1000 nM and an IC50 [6] of over 1000 nM.

B7: SFTI analogue 3 (peptide)
peptide: cyclo(GFCTRENPPHCWPN)
modifications: disulfide 3-11 (inferred)
notes: scaffold of analogue 2 grafted with residues of a LEKTI domain; source: synthetic peptide (Fmoc solid-phase synthesis, cyclised via N to S acyl shift, oxidised, RP-HPLC purified)
In the case of B7, the IC50 [3] is reported as 1800 ± 58 nM.
